Results taken from patent publication US20250115571A1, “OXOPIPERAZINE DERIVATIVES” (Inthera Bioscience AG, priority 2017, published 2025).

Legend:
[1] = system: patient-derived castration-resistant prostate tumor cells (model #PR6511); assay: Castration resistant prostate cancer patient-derived xenograft (CRPC PDX); type: in vivo, mouse; settings: for CR (complete regression) = number of mice / PR (partial regression) = number of mice / TFS (Tumor Free Survival) = number of complete regressions recorded up to Group Day End: groups of eight mice
Method: NSG NOD.Cg-PrkdcscidIj2rgtm1Wjl/SzJ mice (6-8 weeks of age) were injected with patient-derived castration-resistant prostate tumor cells (model #PR6511, Crown Bioscience UK Ltd Hillcrest, Osgathorpe Leicestershire, UK). The cells were inoculated subcutaneously into the left flank of 40 male NSG mice. When tumors reached a mean volume of approximately 100 mm^3 (i.e. 100 mm^3+/−54 mm^3, FIG. 3), mice were randomly assigned to five treatment groups of each eight mice (TABLE 9). Body weights were measured three times weekly prior to the initiation of dosing and daily thereafter. Tumor burden was assessed by caliper measurement three times weekly. Dosing breaks were applied when tolerability issues arose (body weight loss>10). Upon completion of the scheduled dosing phase at day 57, tumor outgrowth was monitored for groups 3, 4 and […] up to study day 77. Groups 1 and 2 were terminated on study day 57. Results of the experiment are shown in TABLES 10 and 11; and FIGS. 3 and 4. The experiment was performed in the Crown Bioscience Ltd. testing facility (Crown Bioscience UK Ltd Hillcrest, Dodgeford Lane, Osgathorpe Leicestershire LE12 9TE, UK).

CaSki = assay: 9-day colony survival assay (CFA); type: cell-based; settings: Homo sapiens, Ca-Ski, 216 h, CaSki (cervix), read-out: GI50 (50% growth inhibition)
From the text: Cell culture. CaSki cells (cervical cancer) were obtained from CLS GmbH, Eppelheim, Germany (cat #300145) and subcultured in ready-to-use RPMI1640 Media (CLS #820700) after addition of “Antibiotic Antimycotic Solution” (Sigma-Aldrich, St Louis, USA) at 1:100 dilution. The cells were expanded, and aliquots kept frozen in liquid nitrogen according to manufacturer's instructions; tested for mycoplasma contamination and genotyped (Microsynth AG, Balgach, Switzerland). Once thawed, aliquots were passaged every second or third day at a seed density of 20′000 cells/cm^2; and used for a maximum of twenty passages. For passaging, cell culture flasks were rinsed twice with Ca++/Mg++-free Phosphate-Buffered Saline (DPBS, CLS #860015) and incubated with Accutase (CLS #830100) for 15 min at 37° C. Cells were resuspended in a four-fold volume of ready-to-use RPMI, centrifuged at 300 g for ten minutes, the supernatant discarded and the cells resuspended in ready-to-use RPMI1640 by pipetting up and down five times with a serological pipette. Cell density was determined with a Via-1 Cassette (Chemometec, Allerod, Denmark) on a Nucleocounter NC 3000 (Chemometec). Where not stated, consumables and chemicals were purchased from well-known suppliers.
Preparation of the cells for CFA. Cell culture flasks were rinsed twice with DPBS and incubated with Accutase for 15 min at 37° C. Cells were resuspended in a four-fold volume of ready-to use RPMI, centrifuged at 300 g for ten minutes, the supernatant discarded and the cells resuspended in ready-to-use RPMI1640 by pipetting up and down ten times with a serological pipette. Cell density was determined with a Via-1 Cassette on a Nucleocounter NC 3000. The required amount of cells was first diluted 1:10 in ready-to-use RPMI; cells pipetted five times up-down with a serological pipette; and the 1:10 solution added to the final volume needed for the whole assay setup. Cells were mixed again by pipetting up and down twenty times with a serological pipette. The cell density used for the experiment was of 140 cells/ml.
Seeding. Cells were seeded row-wise in 12-well plates, while triplicates were treated column-wise (i.e. all the first rows were seeded first, then the second rows, and finally the third rows). One and a half ml cell suspension solution (a total of 210 cells) were added per well.
Treatment. Compound stock solutions were prepared at a concentration of 30 mM in 50% DMSO/50% water; and diluted in the same solution so that the volume added to the wells was of 2.5 μl and the final DMSO well concentration of 0.08%. Untreated cells (negative controls) were incubated in a) medium only; and b) 0.08% DMSO. […] The plates were swirled gently after addition of the compounds and the cells incubated for nine days at 37° C. Culture incubation solutions were replaced after five days.
Staining. Colonies were washed twice with ice-cold DPBS and fixed on ice with 1 ml ice-cold 10% methanol solution for 30 min. The methanol solution was removed and colonies incubated with 0.1% Crystal Violet/DBPS for 20 min at room temperature. The wells were rinsed consecutively with 1.5, 1, and 0.5 ml water at room temperature and let dry.
Destaining and data evaluation. […] Absorbance was measured at 600 nm with a SpectraMax M2e reader (Molecular Devices, Sunnyvale, CA, USA). Percentage of colony formation was calculated from the average of the well triplicates compared to the untreated DMSO controls after subtraction of blank values. […]

PC3 = assay: 9-day colony survival assay (CFA); type: cell-based; settings: Homo sapiens, PC-3, 216 h, PC3 (prostate), read-out: GI50 (50% growth inhibition)
[2] = system: MKN45 human gastric adenocarcinoma cells; assay: Cell-derived xenograft mouse model for gastric cancer (MKN45 CDX); type: in vivo; settings: p.o.; for Tumor Size day 29: MKN45 CDX, female BALB/c nude mice, Mean ± SEM; for T/C: day 29, tumor-to-control ratio (volume/volume)
Method: Female BALB/c nude mice (8-9 weeks of age) were injected with MKN45 human gastric adenocarcinoma cells. The cells were inoculated subcutaneously into the left flank of 48 mice. When tumors reached a mean volume of approximately 103 mm^3, mice were randomly assigned to eight treatment groups of each six mice (TABLE 16). Body weights were measured three times weekly prior to the initiation of dosing and daily thereafter. Tumor burden was assessed by caliper measurement twice weekly. Dosing breaks were applied when tolerability issues arose (body weight loss>10%). The study was terminated four weeks post first dosing. The experiment was performed in the Crown Bioscience Ltd. (Beijing) testing facility (Ground Floor, Light Muller Building, Changping Sector of Zhongguancun Scientific Park, No. 21 Huoju Road, Changping District, Beijing, CHN).

[3] = 6 mg/kg p.o. QD, n.s. = not significant
[4] = p.o. QD, 10 mg/kg, 3 mg/kg from day 51 on

Row | SMILES | TWO-WAY ANOVA p (tumor size at the end of the study) vs. Compound 258 10 mg/kg [1, 3] | TWO-WAY ANOVA p (tumor size at the end of the study) vs. Enzalutamide ([1]; 6 mg/kg, p.o. QD) | TWO-WAY ANOVA p (tumor size at the end of the study) vs. Vehicle ([1]; 6 mg/kg, p.o. QD) | TWO-WAY ANOVA p (tumor size at the end of the study) vs. Enzalutamide ([1]; 10 mg/kg p.o. QD) | TWO-WAY ANOVA p (tumor size at the end of the study) vs. Vehicle ([1]; 10 mg/kg p.o. QD) | CR (complete regression) = number of mice ([1]; p.o. QD, 6 mg/kg) | PR (partial regression) = number of mice ([1]; p.o. QD, 6 mg/kg) | TFS (Tumor Free Survival) = number of complete regressions recorded up to Group Day End ([1]; p.o. QD, 6 mg/kg) | CR (complete regression) = number of mice [1, 4] | PR (partial regression) = number of mice [1, 4] | TFS (Tumor Free Survival) = number of complete regressions recorded up to Group Day End [1, 4] | GI50 (CaSki) | GI50 (PC3) | Tumor Size day 29 ([2]; 3 mg/kg, QD) | T/C ([2]; 3 mg/kg, QD) | Tumor Size day 29 ([2]; 6 mg/kg, QD) | T/C ([2]; 6 mg/kg, QD) | Tumor Size day 29 ([2]; 20 mg/kg, BIW) | T/C ([2]; 20 mg/kg, BIW) | TWO-WAY ANOVA p (tumor size at the end of the study) vs. Compound 258 6 mg/kg [1, 3]
1 | CC(C)C[C@@H]1NCCN([C@@H](CC(C)C)C(=O)N2CCC3(C[C@@H]2C)OCC(CN2CCCC2)CO3)C1=O (stereo partly drawn) [Compound 258, (3S)-1-[(2S)-4-methyl-1-oxo-1-[(3s,6s,8S)-8-methyl-3-(pyrrolidin-1-ylmethyl)-1,5-dioxa-9-azaspiro[5.5]undec-an-9-yl]pentan-2-yl]-3-(2-methylpropyl)piper-azin-2-one (^≠), isomer Z] | n.s. | p < 0.0001 | p < 0.0001 | p < 0.0001 | p < 0.0001 | 3 | 2 | 3 | 4 | 2 | 3 | 2 nM | 3 nM | 428.0 ± 52.5 mm^3 | 36.0% | 186.9 ± 17.3 mm^3 | 15.7% | 763.4 ± 84.5 mm^3 | 64.2% | 
2 | CC(C)C[C@@H]1NCCN([C@@H](CC(C)C)C(=O)N2CCC3(C[C@@H]2C)OCC(CN2CCC4(CC2)CC4)CO3)C1=O (stereo partly drawn) [Compound 279, (3S)-1-[(2S)-4-methyl-1-oxo-1-[(3s,6s,8S)-3-{6-azaspiro[2.5]octan-6-ylmethyl}-8-methyl-1,5-dioxa-9-azaspiro[5.5]undec-an-9-yl]pentan-2-yl]-3-(2-methylpropyl)piper-azin-2-one (^≠), isomer Z] |  |  |  |  |  |  |  |  |  |  |  | 4 nM | 1.5 nM |  |  |  |  |  |  | 
3 | CC(C)C[C@@H]1NCCN([C@@H](CC(C)C)C(=O)N2CCC3(C[C@@H]2C)OCC(CN2CCC2)CO3)C1=O (stereo partly drawn) [Compound 284, (3S)-1-[(2S)-4-methyl-1-oxo-1-[(3s,6s,8S)-3-(azetidin-1-ylmethyl)-8-methyl-1,5-dioxa-9-azaspiro[5.5]undec-an-9-yl]pentan-2-yl]-3-(2-methylpropyl)piper-azin-2-one (^≠), isomer Z] | n.s. | p < 0.0001 | p < 0.0001 |  |  | 3 | 2 | 3 |  |  |  | 6 nM | 3 nM | 709.0 ± 55.6 mm^3 | 59.6% | 592.6 ± 109.7 mm^3 | 49.8% |  |  | n.s.
